Measured values taken from patent publication US9045401B2, “Methods for treating or ameliorating a melanoma and killing melanoma cells” (THE REGENTS OF THE UNIVERSITY OF CALIFORNIA, priority 2007, dated 2015).
pIC50: −log10 of the molar value. Entries after “also recorded” stand apart in the source; their conditions may differ. Read-outs that look alike come from different tables or passages of the source.

Key:
HUVEC cells = experiment: endothelial cell tube formation on Matrigel; format: cell-based, human
Experimental: Endothelial Cell Tube Formation. 96-well plates were coated with 200 uL matrigel per well and stored at 4° C. until use. HUVEC cells were harvested and cell suspensions were prepared at a density of 200,000/ml., and added at 100 ul per well to the plates. […] The plates were incubated at 37° C. under standard incubator conditions and the results were observed microcopically for tube formation.

[1] = test system: NB7-C8 neuroblastoma tumor cells; experiment: neuroblastoma tumor growth on chick chorioallantoic membrane; format: in vivo; settings: 100 picomoles ScA topically after 72 hours, harvested day 8; p<0.002; listed as ScA
Experimental: FIG. 31(A-F): Transgenic Tg(fli1:EGFP) zebrafish embryos in which GFP is expressed in endothelial cells were incubated without (A) or with increasing concentrations of ScA: 80 nM in FIG. 31(B), 160 nM in FIG. 31(C), 300 nM in FIG. 31(D) 1.6 μM in FIG. 31(E) or 3 μM in FIG. 31(F), and blood vessel morphology recorded by fluorescence microscopy. FIG. 31(G) Filter disks impregnated with 100 ng of bFGF were placed on the chorioallantoic membrane of eleven day old chicks to induce angiogenesis in the absence or presence of ScA, as shown. After 72 hours (h), disks were removed and the vascularity of the underlying chorioallantoic membrane determined by direct counting of branch points using a dissecting microscope. FIG. 31(H): NB7 neuroblastoma cells lacking caspase 8 (filled bar) or NB7-C8 cells reconstituted for caspase 8 expression (open bars) were seeded into ten day old chick chorioallantoic membranes to form tumors. After 72 hours, ScA was added topically to each growing tumor mass. Tumors were harvested and resected on day 8, and mass (wet weight) determined. Data shown is the mean±SD (N=8-12).
Tumors were then treated topically with 100 picomoles of ScA, and allowed to grow a further five days before being harvested.
Chick Chorioallantoic membrane studies. The CAM studies were performed using 10 day old chick embryos as we've previously described (36). […]

A549 cells = experiment: confocal microscopy of ceramide and caspase 8; format: cell-based, human
Experimental: Confocal microscopy. […] After treatment, the cells were fixed 10 minutes at room temperature with 4% PFA, washed twice with PBS, permeabilized 2 minutes at room temperature with 0.1% triton in PBS and blocked for 30 minutes with sterile 2% BSA in PBS. The staining was performed at room temperature for 2 hours (h), with mouse monoclonal anti-human ceramide (Alexis) and rabbit anti-human caspase 8 (BD Pharmingen) antibodies followed by secondary goat anti-mouse ALEXA FLUOR568™ and goat anti-rabbit ALEXA FLUOR488™ antibodies (Invitrogen). The blue DNA binding dye TOPRO-3™ (Molecular Probes) was added together with the secondary antibodies. The cells were washed three times with PBS between the different incubation steps and the incubation with the secondary fluorescently labeled antibodies was performed in the dark. All antibodies were diluted in PBS. Confocal images were recorded on a Nikon ECLIPSE C1™ confocal microscope.

A-549 cells = experiment: cell toxicity studies by microscopy; format: cell-based, human; settings: for cell state by microscopy: 24 h
Experimental: FIG. 7 illustrates cell toxicity studies using A-549 cells and somocystinamide A (ScA); FIG. 7A illustrates microscopy images of cells with DMSO (1%) as a control at 24 h; FIG. 7B-ScA (WG-144) on A-549 cells at 100 nM 24 h; FIG. 7C-ScA (WG-144) on A549 cells 1.0 uM 24 h; FIG. 7D-ScA (WG-144) on A549 cells, 10 uM, 24 h. In FIG. 7A, the negative control (no ScA) the live cells are confluent.
FIG. 28(B): A549 cells were fixed and costained using antibodies directed against ceramide (red channel) (Bars in A/B=[…]). Arrows indicate regions of “blebbing.” The nuclear compartment was visualized using DAPI to stain DNA (blue channel). The assessments were performed two hours after treatment with 300 nM ScA. FIG. 28(C): Immunoblot analysis of Jurkat cells was performed following treatment with 100 nM ScA. 25 μg of cell lysates was probed for caspases 8, 3 and 9 and for PARP and actin (loading control) as indicated. FIG. 28(D): Caspase 8 deficient (Casp 8), FADD deficient (FADD −) or parental Jurkat cells (Jurkat) were incubated with 50 or 300 nM for 6 hours and analyzed for the presence of apoptotic cells via FACs analysis of DNA content. Results shown are the mean and standard error of triplicate determinations. FIG. 28(E): A549 cells subjected to lentivirus-delivered shRNA-mediated knockdown of caspase 8, or treated with a scrambled shRNA lentivirus. Cells were then cultured in the presence of increasing doses of ScA, as indicated. Viability was measured by XTT assay after 72 hours, and normalized to controls not treated with drug. FIG. 28(F): similarly, the viability of neuroblastoma cultures deficient in caspase expression, or reconstituted for caspase 8 expression, was determined as for the A549 cells above. Both experiments are representative, with each point shown the mean±SE of triplicate wells.

[2] = test system: HUVEC primary endothelial cells; experiment: 72 h XTT assay for Huvec cell proliferation; format: cell-based, human
Experimental: FIG. 2A illustrates a microtiter plate 72 hour (h) XTT assay for Huvec cell proliferation (2500 cells/well seeded), showing serial dilutions of structurally diverse marine natural compounds. […] FIG. 2B graphically illustrates the data for this study.
Cytotoxicity Assay. Cytotoxicity of ScA was assessed using the XTT cell proliferation assay. Briefly cells were plated on 96 well plates (5,000 per well) and incubated over night at 37° C. to allow for attachment and spreading. After 24 h, ScA was added from a DMSO stock, previously frozen at −80C as added directly from serial dilutions in DMSO at concentrations ranging from 100 uM to 100 fM. After 72 h, XTT (Aldrich Chemicals) was added to a final concentration of 250 ug/well. The plates were then incubated under standard tissue culture conditions until the control wells (DMSO) reached an OD value between 1.0-1.5. as measured at 450 nm using a microtiter plate reader. The cell viability-drug dilution profiles were obtained from sigma plots, and drug concentrations which inhibited growth by 50% were calculated from multiple runs. (IC50)

SMILES: C=CC/C=C/N(C)C(=O)CCCCCCCC/C=C/[C@H](CSSC[C@@H](/C=C/CCCCCCCCC(=O)N(C)/C=C/CC=C)NC(C)=O)NC(C)=O [somocystinamide A, Somocystinamide A]
- tube formation of HUVEC/matrigel (HUVEC cells; 1 μM, 100 μM and 10 nM, FIG. 3): inhibits tube formation
- endothelial cell tube formation (HUVEC cells; 48 hours, FIG. 30B, listed as ScA): potently blocked endothelial cell tube formation; also recorded: endothelial cell tube formation was disrupted in dose-dependent manner
- tumor growth / tumor mass (wet weight) [1]: significantly decreased; also recorded: inhibition of tumor growth selectively in the caspase 8-expressing tumor cells
- colocalization of ceramide and caspase 8 (A549 cells; 0.10 μM, 30 minutes or six hours): induced colocalization of ceramide and caspase 8
- cell surface ceramide (A549 cells; 300 nM, 30 minutes after treatment): accumulation, and aggregation, of cell surface ceramide
- cell morphology, bright field microscopy (A-549 cells; 100 nM ScA, FIG. 28A): induces a blebbing morphology
- cell state by microscopy (A-549 cells; 100 nM): transitioning to apoptosis
- cell state by microscopy (A-549 cells; 1.0 uM): in a state of apoptosis but no lysis
- cell state by microscopy (A-549 cells; 10 uM): in total lysis
- cytotoxicity, concentration range ([2]; 72 h XTT, 2500 cells/well, FIG. 2): cytotoxicity in the nanomolar concentration range
- pIC50 ([2]; Homo sapiens, HUVEC, anti-proliferative effect, FIG. 6, read-out: IC50): 11.40
- IC50 ([2]; cultured endothelial cells, XTT 72 hours): picomolar range
